Reference: EP0168181A1, “Cyclic amides” (IMPERIAL CHEMICAL INDUSTRIES PLC, priority 1984, dated 1986)

Test system: aldose reductase
Assay: in vivo aldose reductase inhibition in streptozotocin-diabetic rats (residual sorbitol in sciatic nerve)
Conditions: oral dose necessary to reduce residual sorbitol level in sciatic nerve of dosed diabetic rat to level similar to normal undosed rat; dosed daily 2-5 days
Description: Thus, rats are made diabetic (as evidenced by severe glucosuria being present) by dosing with streptozotocin. The animals are then dosed daily with the test compound for 2-5 days. The animals are then killed 2-4 hours after the final dose and the eye lenses and/or sciatic nerves are removed. After a standard work-up procedure the residual sorbitol levels in each tissue are determined by gas liquid chromatography after conversion to the poly-trimethylsilyl derivatives. Inhibition of aldose reductase in vivo is then assessed by comparing the residual sorbitol levels in tissues from the dosed diabetic group of rats with those of an undosed group of diabetic rats and an undosed, normal group of rats.
In the above in vivo test, an effective dose (ED) may be defined as the oral dose necessary to reduce the residual sorbitol level in the sciatic nerve of a dosed rat to a level similar to that in sciatic nerve in a normal, undosed-rat.

SMILES	oral ED
O=C1CC2(C(=O)N1)C(=O)N(Cc1ccc(Br)cc1F)c1c(Cl)cccc12 (single isomer, unassigned) [1'-(4-bromo-2-fluorobenzyl)-7'-chloro-spiro[pyrrolidine-3,3'-indoline]-2,2'5-trione]	approximately 1.1 mg./kg.
O=C1CC2(C(=O)N1)C(=O)N(Cc1ccc(Br)cc1F)c1c(F)cccc12 (single isomer, unassigned) [l'-(4-bromo-2-fluorobenzyl)-7'-fluoro-spiro[pyrrolidine-3,3'-indolinel-2,2',5-trione]	approximately 5.6 mg./kg.
